Laboratory results from US7482328B2, “Antimicrobial polypeptide and utilization thereof” (Toagosei Co., Ltd., priority 2002, dated 2009).
No end group written: not given here.

Experiments:
Type in all cases: cell-based
E. coli = tested on: E. coli
Procedure: (§1) Regarding the antimicrobial polypeptide of the present invention (samples 1 to 33) and the polypeptides of comparative samples 1 to 3, the antimicrobial activities (minimum inhibitory concentration: MIC) with respect to gram-negative bacteria (E. coli) and gram-positive bacteria (S. aureus) were determined by a liquid medium dilution technique using a 96-well microplate.
(§2) More specifically, liquid bouillon media (“NUTRIENT BROTH Dehydraged” manufactured by DIFCO) in a polypeptide concentration of 500, 250, 125, 62.5, 31.3, 15.6, 7.8, 3.9, 1.9, 1.0 and 0.5 μM were prepared, and filled in a 96-well microplate. On the other hand, bacteria suspension (about 2×10^6 cells/mL) that had been stationary cultured at 37° C. for 18 hours with LB Broth, Lennox (manufactured by DIFCO) were inoculated to each well of the 96-well microplate in an equal amount to that of the pharmaceutical solution (the above-described polypeptide-containing bouillon medium). After inoculation, culture was started in an incubator at 37° C., and it was examined based on the turbidity after 24 hours and 48 hours whether or not bacteria are present. The minimum of the polypeptide concentrations in which no increase in the turbidity caused by bacteria at the time of measurement was observed was defined as MIC in this example.
(§3) The unit of MIC in Table 2 is μM. […]

S. aureus = tested on: S. aureus
Procedure: as §1, §2, §3

Bacillus brevis IFO15304 = tested on: Bacillus brevis IFO15304
Procedure: as §2
(§4) Next, regarding the polypeptides of the samples 16, 17, 10, 14, and 20, the same antimicrobial test (MIC measurement test) as in Example 2 was performed with respect to various bacteria (see Table 3), and the antimicrobial spectra of these polypeptides were evaluated.

Bacillus cereus IFO15305 = conditions: IFO15305, 24 h
Procedure: as §2, §4

Bacillus cereus IFO3001 = conditions: IFO3001, 24 h
Procedure: as §2, §4

Bacillus pumilus IFO3813 = tested on: Bacillus pumilus IFO3813
Procedure: as §2, §4

[1] = tested on: Bacillus subtilis ATCC6633; conditions: ATCC6633, 24 h
Procedure: as §2, §4

[2] = tested on: Bacillus subtilis IFO3134; conditions: IFO3134, 24 h
Procedure: as §2, §4

[3] = tested on: Escherichia coli IFO12713; conditions: IFO12713, 24 h
Procedure: as §2, §4

[4] = tested on: Escherichia coli O157:H7 sakai; conditions: O157:H7, 24 h
Procedure: as §2, §4

[5] = tested on: Klebsiella pneumoniae ATCC4352; conditions: ATCC4352, 24 h
Procedure: as §2, §4

[6] = tested on: Micrococcus luteus IFO12708; conditions: IFO12708, 24 h
Procedure: as §2, §4

[7] = tested on: Proteus vulgaris ATCC13315; conditions: ATCC13315, 24 h
Procedure: as §2, §4

[8] = tested on: Pseudomonas aeruginosa ATCC10145; conditions: ATCC10145, 24 h
Procedure: as §2, §4

[9] = tested on: Pseudomonas aeruginosa IFO3080; conditions: IFO3080, 24 h
Procedure: as §2, §4

[10] = tested on: Salmonella enteritidis IFO3313; conditions: IFO3313, 24 h
Procedure: as §2, §4

[11] = tested on: Salmonella typhimurium IFO1324; conditions: murium IFO1324, 24 h
Procedure: as §2, §4

[12] = tested on: Staphylococcus aureus COL (MRSA)
Procedure: as §2, §4

[13] = tested on: Staphylococcus aureus IFO12732; conditions: IFO12732, 24 h
Procedure: as §2, §4

[14] = tested on: Staphylococcus aureus IID1677 (MRSA); conditions: IID1677, 24 h
Procedure: as §2, §4

[15] = tested on: Staphylococcus aureus RN450 (*MSSA); conditions: RN450 (*, 24 h)
Procedure: as §2, §4

Sequence: RKKKRKVRKKKRKV [sample 20, RKKKRKVRKKKRKV]
- antimicrobial activity (MIC) E. coli after 24h (E. coli; 24 h): 1.9 µM
- antimicrobial activity (MIC) E. coli after 48h (E. coli; 48 h): 1.9 µM
- antimicrobial activity (MIC) S. aureus after 24h (S. aureus; 24 h): 1.9 µM
- antimicrobial activity (MIC) S. aureus after 48h (S. aureus; 48 h): 1.9 µM
- antimicrobial activity after 24 hours: MIC (Bacillus brevis IFO15304): 133.9 µM
- antimicrobial activity after 24 hours: MIC (Bacillus cereus IFO15305): 133.9 µM
- antimicrobial activity after 24 hours: MIC (Bacillus cereus IFO3001): >267.9 µM
- antimicrobial activity after 24 hours: MIC (Bacillus pumilus IFO3813): 16.7 µM
- antimicrobial activity after 24 hours: MIC [1]: 2.1 µM
- antimicrobial activity after 24 hours: MIC [2]: 4.2 µM
- antimicrobial activity after 24 hours: MIC [3]: 8.4 µM
- antimicrobial activity after 24 hours: MIC [4]: 8.4 µM
- antimicrobial activity after 24 hours: MIC [5]: 4.2 µM
- antimicrobial activity after 24 hours: MIC [6]: 8.4 µM
- antimicrobial activity after 24 hours: MIC [7]: 8.4 µM
- antimicrobial activity after 24 hours: MIC [8]: 4.2 µM
- antimicrobial activity after 24 hours: MIC [9]: 4.2 µM
- antimicrobial activity after 24 hours: MIC [10]: 4.2 µM
- antimicrobial activity after 24 hours: MIC [11]: 8.4 µM
- antimicrobial activity after 24 hours: MIC [12]: 33.5 µM
- antimicrobial activity after 24 hours: MIC [13]: 4.2 µM
- antimicrobial activity after 24 hours: MIC [14]: 8.4 µM
- antimicrobial activity after 24 hours: MIC [15]: 33.5 µM
